Measured values published in ChEMBL document CHEMBL1201862, “PubChem BioAssay data set” (2004).
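All cell lines were grown in 96-well plates and treated with compound for 48 hours. Abbreviation: GI50, concentration required for 50% inhibition of growth.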 Activity calls are given as the source filed them. Cut-off read from the data, not from the text of the source: active = GI50 up to about 1.1 µM and inactive = higher.

Columns and labels:
Test in all cases: growth of human tumour cells (NCI), 48 h
SN12C = system: SN12C
A498 = system: A498
EKVX = system: EKVX
SNB-75 = system: SNB-75
HOP-62 = system: HOP-62
DMS-273 = system: DMS-273
SF-295 = system: SF-295
MOLT-4 = system: MOLT-4
UACC-62 = system: UACC-62
SK-OV-3 = system: SK-OV-3
HT-29 = system: HT-29
SNB-19 = system: SNB-19
OVCAR-4 = system: OVCAR-4
NCI-H522 = system: NCI-H522
HOP-92 = system: HOP-92
CAKI-1 = system: CAKI-1
XF498 = system: XF498
COLO 205 = system: COLO 205
A549 = system: A549
MCF7 = system: MCF7
HCT-116 = system: HCT-116
UO-31 = system: UO-31
HCT-15 = system: HCT-15
HCC 2998 = system: HCC 2998
SNB-78 = system: SNB-78
NCI-H23 = system: NCI-H23
SF-268 = system: SF-268
NCI-H460 = system: NCI-H460
RPMI-8226 = system: RPMI-8226
SF-539 = system: SF-539
LOX IMVI = system: LOX IMVI
K562 = system: K562
OVCAR-8 = system: OVCAR-8
DMS-114 = system: DMS-114
KM-20L2 = system: KM-20L2
CCRF-CEM = system: CCRF-CEM
IGROV-1 = system: IGROV-1
DLD-1 = system: DLD-1
KM12 = system: KM12
HL-60 = system: HL-60
M19-MEL = system: M19-MEL
RXF 393 = system: RXF 393
SK-MEL-5 = system: SK-MEL-5
U-251 = system: U-251
SW-620 = system: SW-620
NCI/ADR-RES = system: NCI/ADR-RES
OVCAR-5 = system: OVCAR-5
SK-MEL-28 = system: SK-MEL-28
Malme-3M = system: Malme-3M
SK-MEL-2 = system: SK-MEL-2
NCI-H226 = system: NCI-H226
OVCAR-3 = system: OVCAR-3
UACC-257 = system: UACC-257
LXFL 529 = system: LXFL 529
M14 = system: M14
786-0 = system: 786-0
TK-10 = system: TK-10
ACHN = system: ACHN

**Q.** With `Nc1nc(=O)[nH][nH]1` as the compound, how does the GI50 (SN12C) read?
**A.** > 100 µM (inactive)

**Q.** What about the GI50 (A498) of the same compound?
**A.** > 100 µM (inactive)

**Q.** And the GI50 (EKVX)?
**A.** > 100 µM (inactive)

**Q.** And the GI50 (SNB-75)?
**A.** > 100 µM (inactive)

**Q.** What about the GI50 (HOP-62) of the same compound?
**A.** > 100 µM (inactive)

**Q.** What about the GI50 (DMS-273) of the same compound?
**A.** > 100 µM (inactive)

**Q.** What about the GI50 (SF-295) of the same compound?
**A.** > 100 µM (inactive)

**Q.** What about the GI50 (MOLT-4) of the same compound?
**A.** > 100 µM (inactive)

**Q.** What about the GI50 (UACC-62) of the same compound?
**A.** > 100 µM (inactive)

**Q.** And the GI50 (SK-OV-3)?
**A.** > 100 µM (inactive)

**Q.** And the GI50 (HT-29)?
**A.** > 100 µM (inactive)

**Q.** And the GI50 (SNB-19)?
**A.** > 100 µM (inactive)

**Q.** What about the GI50 (OVCAR-4) of the same compound?
**A.** > 100 µM (inactive)

**Q.** And the GI50 (NCI-H522)?
**A.** > 100 µM (inactive)

**Q.** And the GI50 (HOP-92)?
**A.** > 100 µM (inactive)

**Q.** What about the GI50 (CAKI-1) of the same compound?
**A.** > 100 µM (inactive)

**Q.** What about the GI50 (XF498) of the same compound?
**A.** > 100 µM (inactive)

**Q.** What about the GI50 (COLO 205) of the same compound?
**A.** > 100 µM (inactive)

**Q.** And the GI50 (A549)?
**A.** > 100 µM (inactive)

**Q.** What about the GI50 (MCF7) of the same compound?
**A.** > 100 µM (inactive)

**Q.** What about the GI50 (HCT-116) of the same compound?
**A.** > 100 µM (inactive)

**Q.** What about the GI50 (UO-31) of the same compound?
**A.** > 100 µM (inactive)

**Q.** What about the GI50 (HCT-15) of the same compound?
**A.** > 100 µM

**Q.** And the GI50 (HCC 2998)?
**A.** > 100 µM (inactive)

**Q.** What about the GI50 (SNB-78) of the same compound?
**A.** > 100 µM (inactive)

**Q.** What about the GI50 (NCI-H23) of the same compound?
**A.** > 100 µM (inactive)

**Q.** And the GI50 (SF-268)?
**A.** > 100 µM (inactive)

**Q.** What about the GI50 (NCI-H460) of the same compound?
**A.** > 100 µM (inactive)

**Q.** And the GI50 (RPMI-8226)?
**A.** > 100 µM (inactive)

**Q.** What about the GI50 (SF-539) of the same compound?
**A.** > 100 µM (inactive)

**Q.** And the GI50 (LOX IMVI)?
**A.** > 100 µM (inactive)

**Q.** And the GI50 (K562)?
**A.** > 100 µM (inactive)

**Q.** What about the GI50 (OVCAR-8) of the same compound?
**A.** > 100 µM (inactive)

**Q.** And the GI50 (DMS-114)?
**A.** > 100 µM (inactive)

**Q.** What about the GI50 (KM-20L2) of the same compound?
**A.** > 100 µM (inactive)

**Q.** And the GI50 (CCRF-CEM)?
**A.** > 100 µM (inactive)

**Q.** And the GI50 (IGROV-1)?
**A.** > 100 µM (inactive)

**Q.** What about the GI50 (DLD-1) of the same compound?
**A.** > 100 µM (inactive)

**Q.** And the GI50 (KM12)?
**A.** > 100 µM (inactive)

**Q.** What about the GI50 (HL-60) of the same compound?
**A.** > 100 µM (inactive)

**Q.** What about the GI50 (M19-MEL) of the same compound?
**A.** > 100 µM (inactive)

**Q.** What about the GI50 (RXF 393) of the same compound?
**A.** > 100 µM (inactive)

**Q.** And the GI50 (SK-MEL-5)?
**A.** > 100 µM (inactive)

**Q.** What about the GI50 (U-251) of the same compound?
**A.** > 100 µM (inactive)

**Q.** What about the GI50 (SW-620) of the same compound?
**A.** > 100 µM (inactive)

**Q.** What about the GI50 (NCI/ADR-RES) of the same compound?
**A.** > 100 µM (inactive)

**Q.** What about the GI50 (OVCAR-5) of the same compound?
**A.** > 100 µM (inactive)

**Q.** What about the GI50 (SK-MEL-28) of the same compound?
**A.** > 100 µM (inactive)

**Q.** And the GI50 (Malme-3M)?
**A.** > 100 µM (inactive)

**Q.** And the GI50 (SK-MEL-2)?
**A.** > 100 µM (inactive)

**Q.** And the GI50 (NCI-H226)?
**A.** > 100 µM (inactive)

**Q.** And the GI50 (OVCAR-3)?
**A.** > 100 µM (inactive)

**Q.** And the GI50 (UACC-257)?
**A.** > 100 µM (inactive)

**Q.** Which results are given for `O=C/C1=C/C2=Cc3ccccc3C=C(/C=C(/C=O)C1)C2`?
**A.** GI50 (SN12C): 42.6 µM (inactive); GI50 (A498): > 100 µM (inactive); GI50 (EKVX): > 100 µM (inactive); GI50 (SNB-75): 27.2 µM (inactive); GI50 (HOP-62): 74.8 µM (inactive); GI50 (DMS-273): 34.2 µM (inactive); GI50 (SF-295): 29 µM (inactive); GI50 (MOLT-4): 15.8 µM (inactive); GI50 (UACC-62): 73.6 µM (inactive); GI50 (HT-29): 40.5 µM (inactive); GI50 (SNB-19): 44.9 µM (inactive); GI50 (OVCAR-4): 46.7 µM (inactive); GI50 (NCI-H522): > 100 µM (inactive); GI50 (HOP-92): 27.7 µM (inactive); GI50 (CAKI-1): 41.1 µM (inactive); GI50 (XF498): 54.5 µM (inactive); GI50 (LXFL 529): 30.3 µM (inactive); GI50 (COLO 205): > 100 µM (inactive); GI50 (A549): > 100 µM (inactive); GI50 (M14): 43.4 µM (inactive); GI50 (HCT-116): 19.4 µM (inactive); GI50 (UO-31): 34 µM (inactive); GI50 (HCT-15): 31.4 µM; GI50 (HCC 2998): 45.9 µM (inactive); GI50 (SNB-78): 52.7 µM (inactive); GI50 (NCI-H23): 32.9 µM (inactive); GI50 (SF-268): 38.1 µM (inactive); GI50 (786-0): 78.2 µM (inactive); GI50 (NCI-H460): 81.1 µM (inactive); GI50 (TK-10): > 100 µM (inactive); GI50 (RPMI-8226): 32 µM (inactive); GI50 (SF-539): 46.6 µM (inactive); GI50 (LOX IMVI): 33.9 µM (inactive); GI50 (K562): 18.1 µM (inactive); GI50 (OVCAR-8): 28.9 µM (inactive); GI50 (DMS-114): 38.3 µM (inactive); GI50 (ACHN): > 100 µM (inactive); GI50 (KM-20L2): > 100 µM (inactive); GI50 (CCRF-CEM): 16.2 µM (inactive); GI50 (IGROV-1): > 100 µM (inactive); GI50 (DLD-1): 38.4 µM (inactive); GI50 (KM12): 36.1 µM (inactive); GI50 (HL-60): 41.5 µM (inactive); GI50 (M19-MEL): 53.8 µM (inactive); GI50 (RXF 393): 28.1 µM (inactive); GI50 (SK-MEL-5): 35.3 µM (inactive); GI50 (U-251): 34.3 µM (inactive); GI50 (SW-620): 44.7 µM (inactive); GI50 (OVCAR-5): > 100 µM (inactive); GI50 (SK-MEL-28): 39.6 µM (inactive); GI50 (Malme-3M): 90.4 µM (inactive); GI50 (SK-MEL-2): > 100 µM (inactive); GI50 (NCI-H226): 43.2 µM (inactive); GI50 (OVCAR-3): 37.5 µM (inactive); GI50 (UACC-257): 30.9 µM (inactive)
